For this series the following is noted: for surface tension liquid-gas: Pendant drop shape; for mass density: 101.33 kPa, Liquid, Vibrating tube method.

Numbers after ± are expanded uncertainties.

A word on the surface tension liquid-gas: it is the work needed to enlarge the surface of a liquid by unit area. Usually mass density stands for the mass of a sample divided by its volume. For `CCCCn1cc[n+](C)c1.NCC(=O)[O-]` [1-butyl-3-methylimidazolium glycinate], the surface tension liquid-gas is on record as 54.5 ± 0.6 mN/m (298.15 K); 53.6 ± 0.6 mN/m (303.15 K); 51.9 ± 0.6 mN/m (313.15 K); 50.5 ± 0.5 mN/m (323.15 K); 48.4 ± 0.5 mN/m (333.15 K); 46.8 ± 0.5 mN/m (343.15 K). Besides, the mass density reads like this: (298.15 K) 1128.47 ± 8 kg/m3; (303.15 K) 1125.91 ± 8 kg/m3; (313.15 K) 1119.35 ± 8 kg/m3; (323.15 K) 1112.78 ± 8 kg/m3; (333.15 K) 1107.1 ± 8 kg/m3; (343.15 K) 1100.5 ± 8 kg/m3.
For `CC(O)C(=O)[O-].CCCCn1cc[n+](C)c1` [1-butyl-3-methylimidazolium lactate], the surface tension liquid-gas turned out to be 42.7 ± 0.5 mN/m (298.15 K); 42.3 ± 0.5 mN/m (303.15 K); 41.9 ± 0.5 mN/m (313.15 K); 41.3 ± 0.5 mN/m (323.15 K); 40.6 ± 0.5 mN/m (333.15 K); 40 ± 0.5 mN/m (343.15 K). Besides, the mass density came out at 1100.2 ± 8 kg/m3 (298.15 K); 1096.63 ± 8 kg/m3 (303.15 K); 1089.79 ± 8 kg/m3 (313.15 K); 1083.17 ± 8 kg/m3 (323.15 K); 1076.42 ± 8 kg/m3 (333.15 K); 1069.75 ± 8 kg/m3 (343.15 K).
Take `CCCC[n+]1ccn(C)c1.O=C([O-])c1ccccc1` [3-butyl-1-methylimidazolium benzoate]: the surface tension liquid-gas worked out at 40.1 ± 0.5 mN/m (298.15 K); 39.7 ± 0.5 mN/m (303.15 K); 39.1 ± 0.4 mN/m (313.15 K); 38.7 ± 0.4 mN/m (323.15 K); 38.3 ± 0.4 mN/m (333.15 K); 37.8 ± 0.4 mN/m (343.15 K). Moreover, the mass density is, setting by setting: (298.15 K) 1105.25 ± 8 kg/m3; (303.15 K) 1102.19 ± 8 kg/m3; (313.15 K) 1095.87 ± 8 kg/m3; (323.15 K) 1089.66 ± 8 kg/m3; (333.15 K) 1083.46 ± 8 kg/m3; (343.15 K) 1077.22 ± 8 kg/m3.
Consider `CCCCn1cc[n+](C)c1.O=C([O-])CO` [1-butyl-3-methylimidazolium glycolate], for which the surface tension liquid-gas runs as follows: (298.15 K) 49.7 ± 0.5 mN/m; (303.15 K) 49.2 ± 0.5 mN/m; (313.15 K) 48.4 ± 0.5 mN/m; (323.15 K) 47.6 ± 0.5 mN/m; (333.15 K) 46.8 ± 0.5 mN/m; (343.15 K) 46.1 ± 0.5 mN/m. Besides, the mass density (298.15 K) stood at 1129.32 ± 8 kg/m3; the mass density (303.15 K) turned out to be 1125.95 ± 8 kg/m3; the mass density (313.15 K) came out at 1118.97 ± 8 kg/m3; the mass density (323.15 K) worked out at 1111.78 ± 8 kg/m3; the mass density (333.15 K) is on record as 1104.3 ± 8 kg/m3; the mass density (343.15 K) is listed as 1097.73 ± 8 kg/m3.

(Values after the NIST ThermoML archive (doi:10.1021/je4004299).)
